Measurements taken from PubChem BioAssay (NCI).
“And” between values parts separate entries of the source, which are not always exact repeats. Identical values can stand only once.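 Cells were grown in 96-well plates and exposed to each compound for 48 hours at five concentrations; endpoints were interpolated linearly between bracketing concentrations, or set to the highest concentration if not reached. At the GI50, growth is halved. Definition used: TGI = concentration required for complete inhibition of growth.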

What was measured:
Test in all cases: NCI-60 cell line screen, 48 h
NCI-H522 lung = system: NCI-H522 lung
OVCAR-5 ovarian = system: OVCAR-5 ovarian
OVCAR-8 ovarian = system: OVCAR-8 ovarian
RPMI-8226 leukemia = system: RPMI-8226 leukemia
EKVX NSCLC = system: EKVX NSCLC
HCT-116 colon = system: HCT-116 colon
UACC-257 melanoma = system: UACC-257 melanoma
CCRF-CEM leukemia = system: CCRF-CEM leukemia
NCI/ADR-RES ovarian = system: NCI/ADR-RES ovarian
DU-145 prostate = system: DU-145 prostate

SMILES	TGI (NCI-H522 lung) [µM]	TGI (OVCAR-5 ovarian) [µM]	TGI (OVCAR-8 ovarian) [µM]	TGI (RPMI-8226 leukemia) [µM]	TGI (EKVX NSCLC) [µM]	TGI (HCT-116 colon) [µM]	TGI (UACC-257 melanoma) [µM]	GI50 (NCI-H522 lung)	GI50 (CCRF-CEM leukemia) [µM]	TGI (CCRF-CEM leukemia)	GI50 (OVCAR-5 ovarian) [µM]	GI50 (NCI/ADR-RES ovarian) [µM]	TGI (NCI/ADR-RES ovarian) [µM]	GI50 (OVCAR-8 ovarian) [µM]	GI50 (RPMI-8226 leukemia) [µM]	GI50 (DU-145 prostate) [µM]	TGI (DU-145 prostate) [µM]	GI50 (HCT-116 colon) [nM]	GI50 (UACC-257 melanoma) [µM]	GI50 (EKVX NSCLC) [µM]
CCOC(=O)C1=C(C)N(NC(=O)Nc2ccccc2)C2(N)N(NC(=O)Nc3ccccc3)C(C)=C(C(=O)OCC)C12C(=O)OCC (configuration not stated)	> 100	> 100	> 100	> 100	> 100	80.2	> 100													
CC(C)(C)[Si](C)(C)OC1[C@@H](O[Si](C)(C)C(C)(C)C)[C@@H](CNC(=O)NC(=O)C(F)(F)F)O[C@H]1n1cnc2c(NC(=O)Nc3ccccc3)ncnc21 (some centres not stated)	16.6	14.6	16.7	28.6		8.47	15	9.14 µM	7.31	41.6 µM	7.89	7.56	14.7	7.76	7.11	6.52	13.2	2460	7.19	
CN1C(=O)C(=O)N2c3ccc(Cl)cc3C3(c4ccccc4)N=CC12O3 (configuration not stated)	9.14	20	12.8	6.87	27.6	13.2	19			17.5 µM										
O=C(/C=C/c1c(O)ccc2ccccc12)c1ccc([N+](=O)[O-])cc1	31.2	> 100	> 61.6	> 100	> 100	37.4	74			> 75.8 µM										
O=C(Nc1nc(=S)[nH][nH]1)C(=O)C(C(=O)c1ccc2ccccc2c1)C1OC(=O)c2ccccc21 (configuration not stated)	65.3	> 100	94.4	40.2	> 100	27.6	76.5			80.7 µM										
O=C(NC1C=CCC2C(=O)N(c3ccccc3)C(=O)C12)OCc1ccccc1 (configuration not stated)	> 100	> 100	> 100	> 100	> 100	> 100	> 100			> 100 µM										
O=C(O)CSc1n[nH]c(-c2ccccc2O)n1		> 100	> 100	> 100	> 100	> 100	> 100			> 100 µM										
CC(=O)[O-].CC(=O)[O-].O=C(N/N=C/c1cc(Cl)cc(Cl)c1O)c1ccncc1.[Cu+2]	> 100	> 100	> 100	> 100	> 100	> 100	> 100			> 100 µM										
Cc1ccc(NC2=C3CCCCC3OC2=O)cc1 (configuration not stated)	> 100	> 100	> 100	> 100		> 100	> 100	29 µM	21.6	84.2 µM	> 100	> 100	> 100	78.4	34.5	88.8	> 100	66100	63.1	
CCCCCCCCCCCCNC(=S)OC	26	30.9	29.7	27.5	36.6	29.3	32.5			33.3 µM										
COc1ccc(CN2C(=O)C(Cl)=C(Nc3cccc(C(F)(F)F)c3)C2=O)cc1		48.7	30.8	23.2	68.7	15.4	27.6		2.54	17.4 µM	18	7.43	45.6	7.65	2.38	8.19	21.6	3450	11.1	8.34
Cc1ccc(S(=O)(=O)N2CCC2c2ccccc2)cc1 (configuration not stated)	> 100		> 100	> 100	> 100	> 100	> 100			> 100 µM										
COc1ccc2c(c1)[n+]([O-])c(C(N)=O)c(N)[n+]2[O-]	31.1	> 100	> 100	> 100	> 100	> 100	94.6													
CN(C)CC(O)c1ccc(/C=C/c2ccc(Cl)cc2)cc1 (configuration not stated)		3.59	3.32	22.4	3.19	2.78	3.15		2.26	4.88 µM	1.72	1.67	3.19	1.75	5.34	1.52	2.85	1460	1.63	1.34
C[C@@]1(O)CC[C@]2(C)C3CCCC3[C@H]12 (some centres not stated)	> 100	> 100	> 100	> 100	> 100	> 100	> 100			> 100 µM										
CN(C)C(=S)/N=c1\ssc(=S)n1C1CCCCC1	37.4	> 100	53.9		> 100	32.3	64.9			46.1 µM										
COc1cc2c(cc1OC)-c1cc(OC)c(OC)cc1C(CN(C)C)C2 (configuration not stated)	> 10	> 10	> 10	> 10		> 10	> 10	> 10 µM	> 10	> 10 µM	> 10	> 10	> 10	> 10	> 10	> 10	> 10	> 10000	> 10	
N#CC(C(=O)CCC(=O)Nc1ccc(Cl)c(Cl)c1)c1ccccc1 (configuration not stated)		> 100	> 100	> 100	> 100	> 100	> 100													
COc1ccc(/C=C/COC(C)=O)cc1OC	> 100	> 100	> 100	> 100	> 100		> 100													
O=S1C(=c2ccc(=C3Sc4ccccc4S3)cc2)Sc2ccccc21 (configuration not stated)	> 100	32.4	34.4	> 100	34.2	> 56.6	> 100			> 100 µM										

SMILES	TGI (NCI-H522 lung) [µM]	TGI (OVCAR-5 ovarian) [µM]	TGI (OVCAR-8 ovarian) [µM]	TGI (RPMI-8226 leukemia) [µM]	TGI (EKVX NSCLC) [µM]	TGI (HCT-116 colon) [µM]	TGI (UACC-257 melanoma) [µM]	GI50 (NCI-H522 lung)	GI50 (CCRF-CEM leukemia) [µM]	TGI (CCRF-CEM leukemia)	GI50 (OVCAR-5 ovarian) [µM]	GI50 (NCI/ADR-RES ovarian) [µM]	TGI (NCI/ADR-RES ovarian) [µM]	GI50 (OVCAR-8 ovarian) [µM]	GI50 (RPMI-8226 leukemia) [µM]	GI50 (DU-145 prostate) [µM]	TGI (DU-145 prostate) [µM]	GI50 (HCT-116 colon) [nM]	GI50 (UACC-257 melanoma) [µM]	GI50 (EKVX NSCLC) [µM]
Cc1[cH-]c(=O)n(-c2ccccc2)n1.[Au+].[Au].c1ccc([PH+](c2ccccc2)c2ccccc2)cc1.c1ccc([PH+](c2ccccc2)c2ccccc2)cc1	51.5	> 100	41.5	> 100	79.7	38.9	91.3	3.46 µM and 12.4 µM	22.8	> 100 µM	> 100			14.6	99.4			20200	25.4	23
O=C1NC(=NCc2ccccc2)S/C1=C\c1ccc2ncccc2c1	> 25	> 25	> 25	> 25		> 25	> 25	> 15.5 µM	> 17.1	> 25 µM	> 25	> 25	> 25	> 25	> 25	> 25	> 25	> 20700	> 25	
Cc1cc(Nc2ccc(C)c(Cl)c2)n2nc(C(F)(F)F)nc2n1		> 100	> 100	39		46.2					38	27.1	> 100	29.3	14	17.6	38.9	17200		
S=P1(Oc2ccccc2)NNP2(=NP(N3CC3)(N3CC3)=NP(N3CC3)(N3CC3)=N2)NN1 (configuration not stated)	> 100	> 100	> 100	> 100	> 100	> 100	> 100			> 100 µM										
O=C1C(C(Nc2ccccc2)c2ccccc2)=C([O-])c2ccccc21.O=C1C(C(Nc2ccccc2)c2ccccc2)=C([O-])c2ccccc21.[Cu+2] (configuration not stated)	73.6		> 100	> 100		> 100	> 100	23.7 µM						41.9	24.8			12000	> 100	
C=C(C)C12OC1[C@@]1(C)C(=CC2=O)CCC(O)[C@@H]1C (some centres not stated)	5.91	> 100	8.24	24	6.69	14.2	> 100			8.82 µM							33.1			
CCCOc1nc(N)c2cnn(C3CCCCO3)c2n1 (configuration not stated)	> 100	> 100	> 100	> 100	> 100	> 100	> 100			> 100 µM										
COc1cc(-c2nn(-c3cccc(NC(=O)c4ccccc4)c3)cc2-c2ccncc2)ccc1Cl		> 100	> 100	> 100		> 100	> 100	0.238 µM	0.492	> 100 µM	12.8	0.36	> 100	0.995	0.457	0.626	27.1	421	0.63	
CN(C)C=Nc1nc(=O)n(C2CCC(CO)O2)cc1F (configuration not stated)	> 100	> 100	> 100	> 100	> 100		> 100			> 100 µM										
CC1(C)CC(c2c[nH]c3ccccc23)=CC2=Nc3ccccc3C21O (configuration not stated)	> 100	> 100	> 100	> 100	> 100	> 100	> 100			> 100 µM										
CN(C)CC1CCCC/C1=N/O (configuration not stated)	> 100	> 100	> 100	> 100	> 100	> 100	> 100			> 100 µM										
C#Cc1cccc(Nc2nc3cc([N+](=O)[O-])ccc3nc2Nc2ccc(O)cc2)c1			6.48	8	5.26	2.9	4.34		1.33	6.01 µM		1.84	4.37	2.33	2.24	1.81	3.77	1460	2.09	1.86
CCC(C)SC1SCC2C(=O)N(C)C3(CC3C)C(=O)OCC(NC(=O)c3nc4ccccc4cc3O)C(=O)NC(C)C(=O)N(C)C1C(=O)N(C)C1(CC1C)C(=O)OCC(NC(=O)c1nc3ccccc3cc1O)C(=O)NC(C)C(=O)N2C (configuration not stated)	0.00022	0.00256	0.0133	0.00233	0.00538		0.000219	1.85e-05 µM		0.028 µM and < 0.013 µM			6.15					0.0288		
CN(C)CC1CCC/C1=N/OC(=O)c1ccccc1 (configuration not stated)	> 100	> 100	> 100	> 100		> 100	> 100			> 100 µM										
COc1ccc(Cn2c(Br)c3c(c2Br)-c2nc(N)sc2CC3)cc1	3.04	50.5	18.4			11.2	22.3	1.59 µM	0.472	15.1 µM	16	4.85	53.5	3.43		6.13	39.6	2890	8.48	
O=c1c2cccnc2ncn1CCN1CCCCC1	> 100	> 100	> 100		> 100	> 100				> 100 µM										
NC(=S)N/N=C\c1nccc2c(C(F)(F)F)cccc12	0.805	27.6	24	14.9		4.26	0.94	0.269 µM	0.278	12.1 µM	0.445	0.349	20.4	0.308	0.376	0.292	> 39.3	298	0.29	
N#CCCC[Si]12OCCN(CCO1)CCO2	> 100	> 100	> 100	> 100	> 100	> 100	> 100			> 100 µM										
NCCNCCNCCN		> 100	> 100		> 100	> 100	> 100		> 100	> 100 µM	> 100	> 100	> 100	> 100		> 100	> 100	> 100000	> 100	> 100
Clc1ccc2cccc3c2c1C1OC3c2ccccc21 (configuration not stated)	> 100	> 100	> 100	> 100	> 100	> 100	> 100			> 100 µM										
